# Data reported in ChEMBL document CHEMBL1201862, “PubChem BioAssay data set” (2004).
# The source made the active and inactive calls.
# Tests used:
# [1] = biological target: T1, Tyrosine-protein phosphatase non-receptor type 11 (Homo sapiens, UniProt Q06124); experiment: SHP2 phosphatase inhibition, dose response, selectivity assay for STEP inhibitor project, biochemical (AID 602367); assay type: functional; details: read-out: IC50_Mean
# T1 sequence (Q06124 whole entry): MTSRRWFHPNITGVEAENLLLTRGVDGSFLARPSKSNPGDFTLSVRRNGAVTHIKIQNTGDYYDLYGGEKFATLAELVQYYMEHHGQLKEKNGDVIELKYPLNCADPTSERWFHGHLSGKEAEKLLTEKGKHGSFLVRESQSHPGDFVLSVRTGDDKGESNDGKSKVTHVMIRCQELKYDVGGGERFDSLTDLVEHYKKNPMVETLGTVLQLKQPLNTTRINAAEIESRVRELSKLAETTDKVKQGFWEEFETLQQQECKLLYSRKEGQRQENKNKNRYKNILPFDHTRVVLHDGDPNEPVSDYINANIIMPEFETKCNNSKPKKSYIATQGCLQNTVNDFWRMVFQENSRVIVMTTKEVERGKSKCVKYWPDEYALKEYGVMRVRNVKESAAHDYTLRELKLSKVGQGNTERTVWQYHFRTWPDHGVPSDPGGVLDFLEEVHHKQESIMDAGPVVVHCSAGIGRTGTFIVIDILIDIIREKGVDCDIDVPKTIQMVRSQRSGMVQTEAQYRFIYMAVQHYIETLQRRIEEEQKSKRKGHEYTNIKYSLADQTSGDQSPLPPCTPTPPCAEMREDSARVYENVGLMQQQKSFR
# [2] = biological target: Dual specificity protein phosphatase 3 (Homo sapiens, UniProt P51452); experiment: VHR phosphatase inhibition, dose response, selectivity assay for STEP inhibitor project, biochemical (AID 602374); assay type: functional; details: read-out: IC50_Mean
# [3] = biological target: T2, Tyrosine-protein phosphatase non-receptor type 5 (Homo sapiens, UniProt P54829); experiment: STEP phosphatase inhibitors, confirmation, biochemical, fluorescence intensity, uHTS hits (AID 602372); assay type: functional; details: read-out: IC50_Mean
# T2 sequence (P54829 whole entry): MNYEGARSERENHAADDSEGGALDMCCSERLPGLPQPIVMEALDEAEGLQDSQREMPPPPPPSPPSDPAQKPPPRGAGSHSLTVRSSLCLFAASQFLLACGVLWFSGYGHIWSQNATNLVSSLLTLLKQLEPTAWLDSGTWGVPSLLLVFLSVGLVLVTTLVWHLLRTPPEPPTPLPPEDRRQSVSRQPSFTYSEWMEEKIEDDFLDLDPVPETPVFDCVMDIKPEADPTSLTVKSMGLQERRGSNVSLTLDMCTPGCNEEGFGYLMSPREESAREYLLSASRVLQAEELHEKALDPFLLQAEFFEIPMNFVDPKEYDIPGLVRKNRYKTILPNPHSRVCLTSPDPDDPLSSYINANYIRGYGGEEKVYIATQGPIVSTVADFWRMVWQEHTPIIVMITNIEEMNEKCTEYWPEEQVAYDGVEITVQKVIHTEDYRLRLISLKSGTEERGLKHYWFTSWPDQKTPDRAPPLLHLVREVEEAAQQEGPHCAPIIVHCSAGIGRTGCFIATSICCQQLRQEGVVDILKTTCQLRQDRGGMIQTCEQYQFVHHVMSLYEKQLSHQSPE
# [4] = biological target: T3, Tyrosine-protein phosphatase non-receptor type 22 (Homo sapiens, UniProt Q9Y2R2); experiment: PTPN22 phosphatase inhibition, dose response, selectivity assay for STEP inhibitor project, biochemical (AID 624241); assay type: functional
# T3 sequence (Q9Y2R2 whole entry): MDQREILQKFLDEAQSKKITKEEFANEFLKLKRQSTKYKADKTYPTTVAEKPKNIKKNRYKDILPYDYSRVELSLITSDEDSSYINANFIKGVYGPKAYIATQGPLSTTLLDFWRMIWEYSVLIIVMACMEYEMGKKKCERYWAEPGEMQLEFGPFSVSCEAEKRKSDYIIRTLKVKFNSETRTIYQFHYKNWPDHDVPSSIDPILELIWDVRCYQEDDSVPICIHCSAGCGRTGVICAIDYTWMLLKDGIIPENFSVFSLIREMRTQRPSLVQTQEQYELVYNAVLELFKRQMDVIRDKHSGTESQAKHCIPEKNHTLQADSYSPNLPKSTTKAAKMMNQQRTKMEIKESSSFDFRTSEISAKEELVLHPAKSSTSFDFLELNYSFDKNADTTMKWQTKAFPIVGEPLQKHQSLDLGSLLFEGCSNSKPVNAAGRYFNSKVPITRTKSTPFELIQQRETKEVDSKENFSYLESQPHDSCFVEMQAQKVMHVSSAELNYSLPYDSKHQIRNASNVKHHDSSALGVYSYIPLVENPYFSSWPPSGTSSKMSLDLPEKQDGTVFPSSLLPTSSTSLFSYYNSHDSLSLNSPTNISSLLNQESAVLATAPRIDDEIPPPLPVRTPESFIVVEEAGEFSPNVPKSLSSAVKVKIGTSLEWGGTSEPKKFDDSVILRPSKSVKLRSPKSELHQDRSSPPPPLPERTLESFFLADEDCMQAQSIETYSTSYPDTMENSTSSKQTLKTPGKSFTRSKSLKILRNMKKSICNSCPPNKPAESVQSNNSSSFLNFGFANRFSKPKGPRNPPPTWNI
# [5] = biological target: T4, Trace amine-associated receptor 1 (Homo sapiens, UniProt Q96RJ0); experiment: Fluorescence-based cell-based high throughput dose response assay to identify agonists of the human trace amine associated receptor 1 (TAAR1).; assay type: functional
# T4 sequence (Q96RJ0 whole entry): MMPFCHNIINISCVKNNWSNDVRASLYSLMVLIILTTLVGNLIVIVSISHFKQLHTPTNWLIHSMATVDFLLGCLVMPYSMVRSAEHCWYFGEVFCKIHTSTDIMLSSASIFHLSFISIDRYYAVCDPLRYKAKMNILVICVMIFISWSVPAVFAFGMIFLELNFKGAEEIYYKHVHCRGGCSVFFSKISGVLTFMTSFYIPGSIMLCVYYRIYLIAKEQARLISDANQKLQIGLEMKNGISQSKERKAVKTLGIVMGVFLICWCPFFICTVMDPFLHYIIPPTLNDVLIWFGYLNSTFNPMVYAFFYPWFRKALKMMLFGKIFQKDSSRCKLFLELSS
# [6] = cells; assay type: functional, cell-based
# [7] = cells; assay type: functional, cell-based; remark: listed apart in the source
# [8] = biological target: T4, Trace amine-associated receptor 1; experiment: Counterscreen for agonists of the human trace amine associated receptor 1 (hTAAR1): Fluorescence-based cell-based high throughput dose response assay to identify hTAAR1 agonist that also desensitize TAAR1 receptor response.; assay type: functional
# [9] = biological target: T5, Short transient receptor potential channel 4 (Mus musculus, UniProt Q9QUQ5); experiment: mouse TRPC4 channel activators, dose response, cell-based, HEK293 TRPC4/mu-opioid, Fluo-4 calcium (AID 434937); assay type: functional
# T5 sequence (Q9QUQ5 whole entry): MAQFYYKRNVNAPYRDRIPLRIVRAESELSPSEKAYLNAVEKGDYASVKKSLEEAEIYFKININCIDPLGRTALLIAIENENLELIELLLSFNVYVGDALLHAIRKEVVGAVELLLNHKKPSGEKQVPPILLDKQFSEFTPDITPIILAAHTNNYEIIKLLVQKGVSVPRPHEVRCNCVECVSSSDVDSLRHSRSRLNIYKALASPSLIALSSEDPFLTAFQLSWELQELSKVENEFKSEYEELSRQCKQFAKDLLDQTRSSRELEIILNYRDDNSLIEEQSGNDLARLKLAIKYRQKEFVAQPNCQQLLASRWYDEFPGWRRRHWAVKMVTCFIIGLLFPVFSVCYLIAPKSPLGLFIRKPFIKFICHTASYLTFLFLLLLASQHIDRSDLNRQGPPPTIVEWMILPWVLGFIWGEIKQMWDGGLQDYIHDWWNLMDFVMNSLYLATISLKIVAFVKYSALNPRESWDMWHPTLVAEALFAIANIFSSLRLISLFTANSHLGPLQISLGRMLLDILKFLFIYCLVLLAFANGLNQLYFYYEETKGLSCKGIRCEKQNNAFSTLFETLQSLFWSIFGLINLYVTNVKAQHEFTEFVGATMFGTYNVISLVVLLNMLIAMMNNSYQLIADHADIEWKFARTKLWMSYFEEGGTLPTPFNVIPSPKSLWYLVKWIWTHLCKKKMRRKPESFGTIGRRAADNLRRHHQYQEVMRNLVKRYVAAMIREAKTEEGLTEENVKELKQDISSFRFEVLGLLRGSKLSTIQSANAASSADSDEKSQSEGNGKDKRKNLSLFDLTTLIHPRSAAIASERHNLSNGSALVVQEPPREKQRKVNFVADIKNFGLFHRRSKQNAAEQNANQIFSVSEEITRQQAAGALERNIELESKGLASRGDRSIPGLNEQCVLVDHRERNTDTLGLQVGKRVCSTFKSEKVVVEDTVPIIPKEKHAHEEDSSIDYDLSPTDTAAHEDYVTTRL
# [10] = biological target: Long-chain-fatty-acid--AMP ligase FadD28 (Mycobacterium tuberculosis, UniProt P9WQ59); experiment: Fluorescence polarization aasay to screen for inhibitors that compete for the binding of FadD28 to a bisubstrate Measured in Biochemical System Using Plate Reader - 2147-01_Inhibitor_Dose_CherryPick_Activity.; assay type: functional, Mycobacterium tuberculosis H37Rv
# [11] = system: H9c2; experiment: cells; assay type: functional, cell-based; details: Rattus norvegicus, H9c2, Myocardium;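 further: confirmatory concentration-response retest of ultra-high-throughput screening hits for modulation of myocardial damage; cell death induced by hydrogen peroxide oxidative stress; compound pretreatment for 60 min then peroxide exposure for 2 h; potency is for protecting the cells against peroxide damage rather than for killing them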
# [12] = biological target: Galanin receptor type 3 (Homo sapiens, UniProt O60755); experiment: Fluorescence-based cell-based primary high throughput dose response assay to identify antagonists of the Galanin Receptor 3 (GalR3).; assay type: functional
# [13] = cells; assay type: functional, cell-based; details: HEK-CNG
# [14] = biological target: Beta-lactamase (Salmonella choleraesuis (strain SC-B67), UniProt Q5J463); experiment: Epi-absorbance-based counterscreen for selective VIM-2 inhibitors: dose response biochemical high throughput screening assay to identify inhibitors of TEM-1 serine-beta-lactamase.
# [15] = biological target: T6, Beta-lactamase (Pseudomonas aeruginosa, UniProt Q79MP6); experiment: IMP-1 metallo-beta-lactamase inhibitors, dose response, selectivity assay for VIM-2 inhibitor project, biochemical, epi-absorbance (AID 1920)
# [16] = biological target: T6, Beta-lactamase; experiment: […] counterscreen for selective VIM-2 inhibitors: dose response biochemical high throughput screening assay to identify inhibitors of IMP-1 metallo-beta-lactamase.
# [17] = cells
# [18] = biological target: Major prion protein (Homo sapiens, UniProt P04156); assay type: functional, cell-based
# [19] = biological target: T7, Methionyl-tRNA synthetase, putative (Trypanosoma brucei brucei, UniProt Q38C91); assay type: functional, Trypanosoma brucei brucei strain 927/4 GUTat10.1
# T7 sequence (Q38C91 whole entry): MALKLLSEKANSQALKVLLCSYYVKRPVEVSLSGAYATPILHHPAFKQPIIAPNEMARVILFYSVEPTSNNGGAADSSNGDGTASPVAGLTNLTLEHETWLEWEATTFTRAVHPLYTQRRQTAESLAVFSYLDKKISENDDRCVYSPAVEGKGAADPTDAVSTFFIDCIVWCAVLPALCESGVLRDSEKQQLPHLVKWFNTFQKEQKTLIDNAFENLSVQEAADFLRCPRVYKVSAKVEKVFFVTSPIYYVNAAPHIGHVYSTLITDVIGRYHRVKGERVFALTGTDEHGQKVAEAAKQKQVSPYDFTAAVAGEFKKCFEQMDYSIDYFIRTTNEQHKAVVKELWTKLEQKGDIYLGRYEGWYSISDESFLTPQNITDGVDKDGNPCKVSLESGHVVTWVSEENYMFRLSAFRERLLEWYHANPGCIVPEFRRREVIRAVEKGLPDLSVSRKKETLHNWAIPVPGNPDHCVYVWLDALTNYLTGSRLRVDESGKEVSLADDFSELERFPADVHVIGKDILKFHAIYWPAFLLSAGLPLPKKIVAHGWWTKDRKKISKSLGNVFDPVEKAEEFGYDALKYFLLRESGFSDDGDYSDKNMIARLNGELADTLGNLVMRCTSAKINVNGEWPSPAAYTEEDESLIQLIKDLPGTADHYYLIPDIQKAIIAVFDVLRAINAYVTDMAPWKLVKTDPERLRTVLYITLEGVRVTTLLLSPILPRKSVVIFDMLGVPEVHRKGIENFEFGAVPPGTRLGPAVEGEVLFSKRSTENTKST
# [20] = biological target: T7, Methionyl-tRNA synthetase, putative; assay type: functional, Trypanosoma brucei brucei strain 927/4 GUTat10.1; remark: listed apart in the source
# [21] = Counterscreen for inhibitors of Trypanosoma brucei methionyl tRNA synthetase (MetRS): Luminescence-based cell-based high throughput dose response assay to identify compounds that are cytotoxic to Jurkat human T lymphocyte cells.; assay type: functional
smiles,measurement,setting,value
COc1ccc(NC(S)=NCCN2CCC(C)CC2)cc1Cl,IC50,[1],0.999 µM (active)
same,IC50,[2],0.72 µM (active)
same,IC50,[3],11.2 µM (active)
same,IC50,[4],43.9 µM (inactive)
CCOC(=O)C1CCCN(C(c2ccccn2)c2c(C)[nH]c3ccccc23)C1 (configuration not stated),EC50,[5],22.3 µM (inactive)
same,IC50,[6],> 29.9 µM (inactive)
same,EC50,[7],> 29.9 µM (inactive)
same,IC50,[8],2.65 µM (active)
same,EC50,[9],5.31 µM (active)
Cc1noc(NS(=O)(=O)c2ccc(NC(=O)/C=C/c3ccc(C(C)C)cc3)cc2)c1C,AC50,[10],30.2 µM (active)
Oc1nc2cccnc2c2ccsc12,IC50,[11],> 79 µM (inactive)
same,IC50,[12],> 29.9 µM (inactive)
same,EC50,[13],> 29.9 µM (inactive)
O=[N+]([O-])C(=C1SCCS1)C(=C(Cl)Cl)N1CCCCC1,AC50,[10],> 100 µM (inactive)
O=C(O)c1ccccc1Sc1ncnc2sc3c(c12)CCC3,IC50,[14],> 59.6 µM (inactive)
same,IC50,[15],> 59.6 µM (inactive)
same,IC50,[16],> 59.6 µM (inactive)
same,IC50,[17],> 138 µM (inactive)
same,IC50,[18],7.05 µM (active)
COc1ccc(/C=C2\SC(=O)N=C2N)cc1,IC50,[19],7.57 µM (active)
same,IC50,[20],119 µM (inactive)
same,IC50,[21],83.4 µM (inactive)
OC(c1ccc(Cl)c(Cl)c1)c1nc(-c2ccc(Cl)cc2)c[nH]1 (configuration not stated),IC50,[19],4.26 µM (active)
same,IC50,[20],7.79 µM (active)
same,IC50,[21],51.5 µM (inactive)
COC(=O)[C@]12CCCCC=C1N(Cc1cccc3ccccc13)C(=O)[C@H](CC(=O)NCc1ccc(OC)c(OC)c1)C2,IC50,[12],> 29.9 µM (inactive)
same,EC50,[13],> 29.9 µM (inactive)
